Measurements reported in ChEMBL document CHEMBL1201862, “PubChem BioAssay data set” (2004).
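Briefly, cells in 96-well plates were exposed to five compound concentrations for 48 h, and endpoints were estimated by linear interpolation. GI50 marks 50% less growth.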 Calls of active or inactive are those of the source. No stated cut-off is given here; in the data, active = GI50 up to about 1.1 µM and inactive = higher.

Experiments:
Test in all cases: NCI-60 cell line screen, 48 h
ACHN = tested on: ACHN
HT-29 = tested on: HT-29
UO-31 = tested on: UO-31
OVCAR-3 = tested on: OVCAR-3
NCI-H522 = tested on: NCI-H522
SNB-19 = tested on: SNB-19
SF-268 = tested on: SF-268
SK-OV-3 = tested on: SK-OV-3
SF-539 = tested on: SF-539
KM12 = tested on: KM12
HCT-15 = tested on: HCT-15
CCRF-CEM = tested on: CCRF-CEM
786-0 = tested on: 786-0
RXF 393 = tested on: RXF 393
IGROV-1 = tested on: IGROV-1
NCI-H460 = tested on: NCI-H460
OVCAR-4 = tested on: OVCAR-4
RPMI-8226 = tested on: RPMI-8226

With `CCOc1ccc(NC(=O)CC2SC(Nc3ccc(C)cc3)=NC2=O)cc1` (stereo not drawn) the GI50 (ACHN) was > 100 µM (inactive), the GI50 (HT-29) was > 100 µM (inactive) and the GI50 (UO-31) was > 100 µM (inactive). For the same compound, the GI50 (OVCAR-3) was > 100 µM (inactive), the GI50 (NCI-H522) was > 100 µM (inactive) and the GI50 (SNB-19) was > 100 µM (inactive). For the same compound, the GI50 (SF-268) was > 100 µM (inactive), the GI50 (SK-OV-3) was > 100 µM (inactive) and the GI50 (SF-539) was > 100 µM (inactive). The GI50 (KM12) was > 100 µM (inactive), the GI50 (HCT-15) was > 100 µM and the GI50 (CCRF-CEM) was 29.2 µM (inactive). For the same compound, the GI50 (786-0) was > 100 µM (inactive), the GI50 (RXF 393) was > 100 µM (inactive) and the GI50 (IGROV-1) was > 100 µM (inactive). The GI50 (NCI-H460) was > 100 µM (inactive) and the GI50 (OVCAR-4) was > 100 µM (inactive).

With `Fc1ccc2c(c1)SC1Oc3ccccc3-c3c1c-2nn3-c1ccccc1` (stereo not drawn) the GI50 (ACHN) was > 100 µM (inactive), the GI50 (HT-29) was > 100 µM (inactive) and the GI50 (UO-31) was > 100 µM (inactive). The GI50 (OVCAR-3) was > 100 µM (inactive), the GI50 (NCI-H522) was 37.9 µM (inactive) and the GI50 (RPMI-8226) was > 100 µM (inactive). The GI50 (SF-268) was > 100 µM (inactive), the GI50 (SK-OV-3) was > 100 µM (inactive) and the GI50 (SF-539) was > 100 µM (inactive). The GI50 (KM12) was > 100 µM (inactive), the GI50 (CCRF-CEM) was > 100 µM (inactive) and the GI50 (786-0) was > 100 µM (inactive). The GI50 (RXF 393) was 46.9 µM (inactive), the GI50 (IGROV-1) was > 100 µM (inactive) and the GI50 (NCI-H460) was > 100 µM (inactive).

With `CN(C)CC/[N+]([O-])=C(/c1ccccc1)C12CC3CC(CC(C3)C1)C2` the GI50 (ACHN) was 16.3 µM (inactive), the GI50 (HT-29) was 11 µM (inactive) and the GI50 (UO-31) was 11.9 µM (inactive). The GI50 (OVCAR-3) was 14.7 µM (inactive), the GI50 (NCI-H522) was 15.1 µM (inactive) and the GI50 (SNB-19) was 18.2 µM (inactive). The GI50 (RPMI-8226) was 17.7 µM (inactive), the GI50 (SF-268) was 20.9 µM (inactive) and the GI50 (SK-OV-3) was 17.1 µM (inactive). The GI50 (SF-539) was 16.5 µM (inactive), the GI50 (KM12) was 18.3 µM (inactive) and the GI50 (HCT-15) was 19.1 µM. For the same compound, the GI50 (CCRF-CEM) was 15.8 µM (inactive), the GI50 (786-0) was 13.5 µM (inactive) and the GI50 (RXF 393) was 18.2 µM (inactive). The GI50 (IGROV-1) was 18.5 µM (inactive) and the GI50 (NCI-H460) was 18.4 µM (inactive).

`CCCC(=O)N[C@@H](Cc1cc(I)c(O)c(I)c1)C(=O)NCCCNCCCCNCCCNC(=O)[C@@H](N)CCCN=C(N)N` was tested, and the GI50 (ACHN) was 40.1 µM (inactive), the GI50 (HT-29) was > 100 µM (inactive) and the GI50 (UO-31) was 29.8 µM (inactive). For the same compound, the GI50 (OVCAR-3) was > 100 µM (inactive), the GI50 (NCI-H522) was 11.2 µM (inactive) and the GI50 (SNB-19) was > 100 µM (inactive). For the same compound, the GI50 (RPMI-8226) was 40.6 µM (inactive), the GI50 (SF-268) was > 10 µM (inactive) and the GI50 (SF-539) was 10.4 µM (inactive). The GI50 (KM12) was 55 µM (inactive), the GI50 (HCT-15) was > 100 µM and the GI50 (CCRF-CEM) was > 100 µM (inactive). For the same compound, the GI50 (786-0) was 73.3 µM (inactive), the GI50 (RXF 393) was > 100 µM (inactive) and the GI50 (IGROV-1) was 29 µM (inactive). The GI50 (NCI-H460) was 34.2 µM (inactive).

In the case of `Nc1ncnc2c1N=CN(Oc1ccccc1)N2`, the GI50 (ACHN) is reported as > 100 µM (inactive), the GI50 (HT-29) is reported as > 100 µM (inactive) and the GI50 (OVCAR-3) is reported as > 100 µM (inactive). The GI50 (RPMI-8226) was > 100 µM (inactive), the GI50 (SK-OV-3) was > 100 µM (inactive) and the GI50 (SF-539) was > 100 µM (inactive). For the same compound, the GI50 (KM12) was > 100 µM (inactive), the GI50 (HCT-15) was > 100 µM and the GI50 (786-0) was > 100 µM (inactive). For the same compound, the GI50 (RXF 393) was > 100 µM (inactive), the GI50 (IGROV-1) was > 100 µM (inactive) and the GI50 (NCI-H460) was > 100 µM (inactive). For the same compound, the GI50 (OVCAR-4) was > 100 µM (inactive).

`Clc1ccccc1C1=NN(c2ccccc2)C2c3cc(Br)ccc3OCC12` (stereo not drawn) was tested, and the GI50 (ACHN) was > 100 µM (inactive), the GI50 (HT-29) was > 100 µM (inactive) and the GI50 (UO-31) was > 100 µM (inactive). The GI50 (OVCAR-3) was > 100 µM (inactive), the GI50 (NCI-H522) was > 100 µM (inactive) and the GI50 (SNB-19) was > 100 µM (inactive). The GI50 (RPMI-8226) was 67.9 µM (inactive), the GI50 (SF-268) was > 100 µM (inactive) and the GI50 (SK-OV-3) was > 100 µM (inactive). For the same compound, the GI50 (SF-539) was > 100 µM (inactive), the GI50 (KM12) was > 100 µM (inactive) and the GI50 (CCRF-CEM) was > 100 µM (inactive). For the same compound, the GI50 (786-0) was > 100 µM (inactive), the GI50 (RXF 393) was > 100 µM (inactive) and the GI50 (IGROV-1) was > 100 µM (inactive). For the same compound, the GI50 (NCI-H460) was > 100 µM (inactive).

In the case of `COc1ccc2c(c1)CC[C@@H]1C2CC[C@]2(C)C(=N\O)/C(=N/O)CC12` (stereo partly drawn), the GI50 (ACHN) is reported as 15.7 µM (inactive), the GI50 (HT-29) is reported as 2.24 µM (inactive) and the GI50 (UO-31) is reported as 12.8 µM (inactive). For the same compound, the GI50 (OVCAR-3) was 12.4 µM (inactive), the GI50 (NCI-H522) was 2.93 µM (inactive) and the GI50 (SNB-19) was 16.6 µM (inactive). The GI50 (RPMI-8226) was 9.31 µM (inactive), the GI50 (SF-268) was 17.9 µM (inactive) and the GI50 (SK-OV-3) was 18.4 µM (inactive). The GI50 (SF-539) was 18.5 µM (inactive), the GI50 (KM12) was 11.2 µM (inactive) and the GI50 (HCT-15) was 12.4 µM. For the same compound, the GI50 (CCRF-CEM) was 9.68 µM (inactive), the GI50 (786-0) was 17.5 µM (inactive) and the GI50 (IGROV-1) was 3.64 µM (inactive). The GI50 (NCI-H460) was 3.41 µM (inactive).

With `COc1ccc(C2=NNC(=O)OC2c2ccccc2)cc1` (stereo not drawn) the GI50 (ACHN) was > 100 µM (inactive), the GI50 (HT-29) was 38 µM (inactive) and the GI50 (UO-31) was > 100 µM (inactive). The GI50 (OVCAR-3) was 81.8 µM (inactive), the GI50 (SNB-19) was 67.1 µM (inactive) and the GI50 (RPMI-8226) was > 100 µM (inactive). The GI50 (SF-268) was 72.6 µM (inactive), the GI50 (SF-539) was > 100 µM (inactive) and the GI50 (KM12) was 40.9 µM (inactive). For the same compound, the GI50 (HCT-15) was 37.7 µM, the GI50 (CCRF-CEM) was 48.3 µM (inactive) and the GI50 (786-0) was > 100 µM (inactive). The GI50 (RXF 393) was 38 µM (inactive), the GI50 (IGROV-1) was > 100 µM (inactive) and the GI50 (NCI-H460) was 53.2 µM (inactive). The GI50 (OVCAR-4) was > 100 µM (inactive).

In the case of `Cc1cc(N(CCC#N)CCC#N)ccc1/C=C(\NC(=O)/C=C/c1ccccc1)C(=O)N=[N+]=[N-]`, the GI50 (ACHN) is reported as > 100 µM (inactive), the GI50 (HT-29) is reported as > 100 µM (inactive) and the GI50 (UO-31) is reported as > 100 µM (inactive). For the same compound, the GI50 (OVCAR-3) was 7.01 µM (inactive), the GI50 (NCI-H522) was 30.4 µM (inactive) and the GI50 (SNB-19) was 77.8 µM (inactive). For the same compound, the GI50 (RPMI-8226) was > 100 µM (inactive), the GI50 (SF-268) was 99.1 µM (inactive) and the GI50 (SK-OV-3) was 55 µM (inactive). The GI50 (SF-539) was 52.5 µM (inactive), the GI50 (KM12) was 2.91 µM (inactive) and the GI50 (HCT-15) was > 100 µM. For the same compound, the GI50 (CCRF-CEM) was > 100 µM (inactive), the GI50 (786-0) was 37.5 µM (inactive) and the GI50 (RXF 393) was 34.8 µM (inactive). The GI50 (IGROV-1) was > 100 µM (inactive) and the GI50 (NCI-H460) was > 100 µM (inactive).
